{"source": "PubChem BioAssay (NCI)", "experiment_in_all_cases": "NCI anticancer screen, dose series, 48 h", "key": {"UACC-62 melanoma": {"test_system": "UACC-62 melanoma"}, "MALME-3M melanoma": {"test_system": "MALME-3M melanoma"}, "KM12 colon": {"test_system": "KM12 colon"}, "TK-10 renal": {"test_system": "TK-10 renal"}, "NCI-H460 lung": {"test_system": "NCI-H460 lung"}, "IGROV1 ovarian": {"test_system": "IGROV1 ovarian"}, "OVCAR-3 ovarian": {"test_system": "OVCAR-3 ovarian"}, "SF-268 CNS": {"test_system": "SF-268 CNS"}, "K-562 leukemia": {"test_system": "K-562 leukemia"}, "CCRF-CEM leukemia": {"test_system": "CCRF-CEM leukemia"}}, "note": "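Following 48 hours of exposure in 96-well plates, responses at five concentrations were used to interpolate endpoints linearly. TGI: total growth inhibition.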 Where a SMILES comes first, the peptide text is derived from it. [ ]: non-standard residue; d: D form. The star is where a group is joined. Phe(4-NO2) = N[CH](Cc1ccc([N+](=O)[O-])cc1)C(=O)O; Boc = CC(C)(C)OC(=O)*; OtBu = CC(C)(C)O*"}
{"smiles": "Clc1ncc(C(Cl)(Cl)Cl)nc1-c1ccccc1", "values": [{"measurement": "TGI", "setting": "UACC-62 melanoma", "result": 7.27, "unit": "µM"}, {"measurement": "TGI", "setting": "MALME-3M melanoma", "result": 19.1, "unit": "µM"}, {"measurement": "TGI", "setting": "KM12 colon", "result": 3.43, "unit": "µM"}, {"measurement": "TGI", "setting": "TK-10 renal", "result": 5.39, "unit": "µM"}, {"measurement": "TGI", "setting": "NCI-H460 lung", "result": 11.3, "unit": "µM"}, {"measurement": "TGI", "setting": "IGROV1 ovarian", "result": 8.05, "unit": "µM"}, {"measurement": "TGI", "setting": "OVCAR-3 ovarian", "result": 3.1, "unit": "µM"}, {"measurement": "TGI", "setting": "SF-268 CNS", "result": 5.09, "unit": "µM"}, {"measurement": "TGI", "setting": "K-562 leukemia", "result": 12.4, "unit": "µM"}, {"measurement": "TGI", "setting": "CCRF-CEM leukemia", "result": "> 100", "unit": "µM"}]}
{"smiles": "CN(Cc1nc2c(N)nc(N)nc2nc1N)c1ccc(C(=O)NC(CCC(=O)O)C(=O)O)cc1", "note": "(stereo not given)", "values": [{"measurement": "TGI", "setting": "UACC-62 melanoma", "result": "> 100", "unit": "µM"}, {"measurement": "TGI", "setting": "MALME-3M melanoma", "result": "> 100", "unit": "µM"}, {"measurement": "TGI", "setting": "KM12 colon", "result": "> 100", "unit": "µM"}, {"measurement": "TGI", "setting": "TK-10 renal", "result": "> 100", "unit": "µM"}, {"measurement": "TGI", "setting": "NCI-H460 lung", "result": "> 100", "unit": "µM"}, {"measurement": "TGI", "setting": "IGROV1 ovarian", "result": "> 100", "unit": "µM"}, {"measurement": "TGI", "setting": "OVCAR-3 ovarian", "result": "> 100", "unit": "µM"}, {"measurement": "TGI", "setting": "SF-268 CNS", "result": "> 100", "unit": "µM"}, {"measurement": "TGI", "setting": "K-562 leukemia", "result": "> 100", "unit": "µM"}, {"measurement": "TGI", "setting": "CCRF-CEM leukemia", "result": "> 100", "unit": "µM"}]}
{"smiles": "COC(=O)C(Cc1ccc([N+](=O)[O-])cc1)NC(=O)C(CC(=O)OC(C)(C)C)NC(=O)OC(C)(C)C", "note": "(stereo not given) (Boc-Asp(OtBu)-[Phe(4-NO2)]-OMe; configuration not given here)", "values": [{"measurement": "TGI", "setting": "UACC-62 melanoma", "result": "> 100", "unit": "µM"}, {"measurement": "TGI", "setting": "MALME-3M melanoma", "result": "> 100", "unit": "µM"}, {"measurement": "TGI", "setting": "KM12 colon", "result": "> 100", "unit": "µM"}, {"measurement": "TGI", "setting": "TK-10 renal", "result": "> 100", "unit": "µM"}, {"measurement": "TGI", "setting": "NCI-H460 lung", "result": "> 100", "unit": "µM"}, {"measurement": "TGI", "setting": "IGROV1 ovarian", "result": "> 100", "unit": "µM"}, {"measurement": "TGI", "setting": "OVCAR-3 ovarian", "result": "> 100", "unit": "µM"}, {"measurement": "TGI", "setting": "SF-268 CNS", "result": "> 100", "unit": "µM"}, {"measurement": "TGI", "setting": "K-562 leukemia", "result": "> 100", "unit": "µM"}, {"measurement": "TGI", "setting": "CCRF-CEM leukemia", "result": "> 100", "unit": "µM"}]}
{"smiles": "CN(C)CCn1c(=O)c2ccc(NCCNCCO)c3c(=O)c4cc(O)ccc4n(c1=O)c23", "values": [{"measurement": "TGI", "setting": "UACC-62 melanoma", "result": 4.23, "unit": "µM"}, {"measurement": "TGI", "setting": "MALME-3M melanoma", "result": 17.1, "unit": "µM"}, {"measurement": "TGI", "setting": "KM12 colon", "result": 26.6, "unit": "µM"}, {"measurement": "TGI", "setting": "TK-10 renal", "result": 21.1, "unit": "µM"}, {"measurement": "TGI", "setting": "NCI-H460 lung", "result": 4.51, "unit": "µM"}, {"measurement": "TGI", "setting": "IGROV1 ovarian", "result": 7.47, "unit": "µM"}, {"measurement": "TGI", "setting": "OVCAR-3 ovarian", "result": 19.3, "unit": "µM"}, {"measurement": "TGI", "setting": "SF-268 CNS", "result": 14.9, "unit": "µM"}, {"measurement": "TGI", "setting": "K-562 leukemia", "result": "> 30.5", "unit": "µM"}, {"measurement": "TGI", "setting": "CCRF-CEM leukemia", "result": 2.05, "unit": "µM"}]}
{"smiles": "COc1ccc(-c2c(C(C)=O)c(C)n(C3OC(CO)C(O)C(O)C3O)c(=S)c2C#N)cc1", "note": "(stereo not given)", "values": [{"measurement": "TGI", "setting": "UACC-62 melanoma", "result": "> 100", "unit": "µM"}, {"measurement": "TGI", "setting": "MALME-3M melanoma", "result": "> 100", "unit": "µM"}, {"measurement": "TGI", "setting": "KM12 colon", "result": "> 100", "unit": "µM"}, {"measurement": "TGI", "setting": "TK-10 renal", "result": "> 100", "unit": "µM"}, {"measurement": "TGI", "setting": "NCI-H460 lung", "result": "> 100", "unit": "µM"}, {"measurement": "TGI", "setting": "IGROV1 ovarian", "result": "> 100", "unit": "µM"}, {"measurement": "TGI", "setting": "OVCAR-3 ovarian", "result": "> 100", "unit": "µM"}, {"measurement": "TGI", "setting": "SF-268 CNS", "result": "> 100", "unit": "µM"}, {"measurement": "TGI", "setting": "K-562 leukemia", "result": "> 100", "unit": "µM"}, {"measurement": "TGI", "setting": "CCRF-CEM leukemia", "result": "> 100", "unit": "µM"}]}
{"smiles": "CC(=O)Oc1ccc2c(c1)c1c(OC(C)=O)c3ccccc3c(OC(C)=O)c1n2Cc1cccc(C)c1", "values": [{"measurement": "TGI", "setting": "UACC-62 melanoma", "result": "> 100", "unit": "µM"}, {"measurement": "TGI", "setting": "MALME-3M melanoma", "result": "> 100", "unit": "µM"}, {"measurement": "TGI", "setting": "KM12 colon", "result": "> 100", "unit": "µM"}, {"measurement": "TGI", "setting": "TK-10 renal", "result": "> 100", "unit": "µM"}, {"measurement": "TGI", "setting": "NCI-H460 lung", "result": "> 100", "unit": "µM"}, {"measurement": "TGI", "setting": "IGROV1 ovarian", "result": "> 100", "unit": "µM"}, {"measurement": "TGI", "setting": "OVCAR-3 ovarian", "result": 72.9, "unit": "µM"}, {"measurement": "TGI", "setting": "SF-268 CNS", "result": "> 100", "unit": "µM"}, {"measurement": "TGI", "setting": "K-562 leukemia", "result": "> 100", "unit": "µM"}, {"measurement": "TGI", "setting": "CCRF-CEM leukemia", "result": 62.6, "unit": "µM"}]}
{"smiles": "O=C(O)c1ccc(Nc2cnc3ccc(C(F)(F)F)cc3n2)cc1", "values": [{"measurement": "TGI", "setting": "UACC-62 melanoma", "result": 29.2, "unit": "µM"}, {"measurement": "TGI", "setting": "MALME-3M melanoma", "result": "> 100", "unit": "µM"}, {"measurement": "TGI", "setting": "KM12 colon", "result": 31.4, "unit": "µM"}, {"measurement": "TGI", "setting": "TK-10 renal", "result": 44.8, "unit": "µM"}, {"measurement": "TGI", "setting": "NCI-H460 lung", "result": 87.9, "unit": "µM"}, {"measurement": "TGI", "setting": "IGROV1 ovarian", "result": 28.5, "unit": "µM"}, {"measurement": "TGI", "setting": "OVCAR-3 ovarian", "result": 98.1, "unit": "µM"}, {"measurement": "TGI", "setting": "SF-268 CNS", "result": "> 100", "unit": "µM"}, {"measurement": "TGI", "setting": "K-562 leukemia", "result": 51.4, "unit": "µM"}, {"measurement": "TGI", "setting": "CCRF-CEM leukemia", "result": 43.1, "unit": "µM"}]}
{"smiles": "c1ccc(C/C(=N\\Nc2nc3ccccc3o2)c2ccccn2)cc1", "values": [{"measurement": "TGI", "setting": "UACC-62 melanoma", "result": 2.49, "unit": "µM"}, {"measurement": "TGI", "setting": "MALME-3M melanoma", "result": 1.82, "unit": "µM"}, {"measurement": "TGI", "setting": "KM12 colon", "result": 6.67, "unit": "µM"}, {"measurement": "TGI", "setting": "TK-10 renal", "result": 1.81, "unit": "µM"}, {"measurement": "TGI", "setting": "NCI-H460 lung", "result": 2.27, "unit": "µM"}, {"measurement": "TGI", "setting": "IGROV1 ovarian", "result": 0.609, "unit": "µM"}, {"measurement": "TGI", "setting": "OVCAR-3 ovarian", "result": 0.0301, "unit": "µM"}, {"measurement": "TGI", "setting": "SF-268 CNS", "result": 0.921, "unit": "µM"}, {"measurement": "TGI", "setting": "K-562 leukemia", "result": 3.66, "unit": "µM"}, {"measurement": "TGI", "setting": "CCRF-CEM leukemia", "result": 0.0473, "unit": "µM"}]}
{"smiles": "CC(=O)c1nccc2c1c(C)nc1ccccc12", "values": [{"measurement": "TGI", "setting": "UACC-62 melanoma", "result": "> 100", "unit": "µM"}, {"measurement": "TGI", "setting": "MALME-3M melanoma", "result": "> 100", "unit": "µM"}, {"measurement": "TGI", "setting": "KM12 colon", "result": "> 100", "unit": "µM"}, {"measurement": "TGI", "setting": "TK-10 renal", "result": "> 100", "unit": "µM"}, {"measurement": "TGI", "setting": "NCI-H460 lung", "result": "> 100", "unit": "µM"}, {"measurement": "TGI", "setting": "IGROV1 ovarian", "result": "> 100", "unit": "µM"}, {"measurement": "TGI", "setting": "OVCAR-3 ovarian", "result": "> 100", "unit": "µM"}, {"measurement": "TGI", "setting": "SF-268 CNS", "result": "> 100", "unit": "µM"}, {"measurement": "TGI", "setting": "K-562 leukemia", "result": "> 100", "unit": "µM"}, {"measurement": "TGI", "setting": "CCRF-CEM leukemia", "result": 68.6, "unit": "µM"}]}
{"smiles": "O=C(O)CNC(=O)c1cccc2c(=O)c3ccccc3[nH]c12", "values": [{"measurement": "TGI", "setting": "UACC-62 melanoma", "result": "> 100", "unit": "µM"}, {"measurement": "TGI", "setting": "MALME-3M melanoma", "result": "> 100", "unit": "µM"}, {"measurement": "TGI", "setting": "KM12 colon", "result": "> 86.4", "unit": "µM"}, {"measurement": "TGI", "setting": "TK-10 renal", "result": "> 100", "unit": "µM"}, {"measurement": "TGI", "setting": "NCI-H460 lung", "result": "> 100", "unit": "µM"}, {"measurement": "TGI", "setting": "IGROV1 ovarian", "result": "> 100", "unit": "µM"}, {"measurement": "TGI", "setting": "OVCAR-3 ovarian", "result": "> 100", "unit": "µM"}, {"measurement": "TGI", "setting": "SF-268 CNS", "result": "> 100", "unit": "µM"}, {"measurement": "TGI", "setting": "K-562 leukemia", "result": "> 100", "unit": "µM"}, {"measurement": "TGI", "setting": "CCRF-CEM leukemia", "result": "> 100", "unit": "µM"}]}
